According to patent US20150299188A1, “HETEROCYCLIC COMPOUND” (priority 2012, published 2015):

System: FLAP (5-lipoxygenase activating protein)
Experiment: In vitro binding test: displacement of [3H]-7-chloro-3-(5-((3-fluoropyridin-2-yl)methoxy)-2-methylphenyl)-3,4-dihydroquinazolin-2(1H)-one from Sf9 microsome fractions
Parameters: species or system human and mouse
Settings: Sf9 microsome fractions expressing FLAP; 100% = radioligand binding with 10 μM sodium 3-(3-(tert-butylsulfanyl)-1-(4-chlorobenzyl)-5-isopropyl-1H-indol-2-yl)-2,2-dimethylpropanoate, 0% = DMSO; test compound concentration not given
How it was run: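 Sf9 microsomes expressing human or mouse FLAP (2 μg/mL) preincubated with compound 10 min at room temperature, then 120 nM tritiated quinazolinone ligand added for 60 min; buffer 100 mM Tris-HCl pH 7.5 with NaCl, EDTA, DTT, glycerol, Tween20. Bound ligand filtered and counted by scintillation; 10 μM indole propanoate defines 100% inhibition, DMSO 0%.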

SMILES | inhibitory rate (%)
O=C1Nc2c(N3CCCC3)ncc(Cl)c2CN1c1cc2c(cc1Cl)CCC(c1ncccc1F)O2 (stereo not shown) [Example 153, 5-chloro-3-(6-chloro-2-(3-fluoropyridin-2-yl)-3,4-dihydro-2H-chromen-7-yl)-8-(pyrrolidin-1-yl)-3,4-dihydropyrido[3,4-d]pyrimidin-2(1H)-one] | 104
CCOC(=O)CCCCc1ccc(OCc2ncccc2F)cc1N1Cc2ccccc2NC1=O [Example 248, ethyl 5-(4-((3-fluoropyridin-2-yl)methoxy)-2-(2-oxo-1,4-dihydroquinazolin-3(2H)-yl)phenyl)pentanoate] | 98
CCc1nccc2c1CN(c1cc3c(cc1C)CCC(c1ncccc1F)O3)C(=O)N2 (stereo not shown) [Example 27, 5-ethyl-3-(2-(3-fluoropyridin-2-yl)-6-methyl-3,4-dihydro-2H-chromen-7-yl)-3,4-dihydropyrido[4,3-d]pyrimidin-2(1H)-one] | 82
Cc1ccc(OCc2ncccc2F)cc1-n1c(=O)[nH]c2ccccc2c1=O [Example 337, 3-(5-((3-fluoropyridin-2-yl)methoxy)-2-methylphenyl)quinazoline-2,4(1H,3H)-dione] | 104
COC(=O)c1ccc2c(c1)NC(=O)N(c1cc(OCc3cccc(F)c3F)ccc1C)C2 [Example 198, methyl 3-(5-((2,3-difluorobenzyl)oxy)-2-methylphenyl)-2-oxo-1,2,3,4-tetrahydroquinazoline-7-carboxylate] | 94
Cc1cc2c(cc1N1Cc3c(ccnc3C(F)F)NC1=O)OC(c1ncccc1F)CC2 (stereo not shown) [Example 24, 5-(difluoromethyl)-3-(2-(3-fluoropyridin-2-yl)-6-methyl-3,4-dihydro-2H-chromen-7-yl)-3,4-dihydropyrido[4,3-d]pyrimidin-2 (1H)-one] | 96
COCCOc1cccc2c(=O)n(-c3cc(OCc4ncccc4F)ccc3C)c(=O)[nH]c12 [Example 354, 3-(5-((3-fluoropyridin-2-yl)methoxy)-2-methylphenyl)-8-(2-methoxyethoxy)quinazoline-2,4(1H,3H)-dione] | 104
O=C1Nc2ccnc(C3CC3)c2CN1c1cc2c(cc1Cl)CCC(c1ncccc1F)O2 (stereo not shown) [Example 39, 3-(6-chloro-2-(3-fluoropyridin-2-yl)-3,4-dihydro-2H-chromen-7-yl)-5-cyclopropyl-3,4-dihydropyrido[4,3-d]pyrimidin-2(1H)-one] | 94
Cc1ccc(OCc2ncccc2F)cc1N1Cc2c(ccnc2Cl)NC1=O [Example 279, 5-chloro-3-(5-((3-fluoropyridin-2-yl)methoxy)-2-methylphenyl)-3,4-dihydropyrido[4,3-d]pyrimidin-2(1H)-one] | 103
O=C1Nc2ccccc2CN1c1cc(OCc2ncccn2)ccc1Br [Example 267, 3-(2-bromo-5-(pyrimidin-2-ylmethoxy)phenyl)-3,4-dihydroquinazolin-2(1H)-one] | 100
Cc1cc2c(cc1N1Cc3c(Cl)cnc(-c4c(C)noc4C)c3NC1=O)OC(c1ncccc1F)CC2 (single isomer, unassigned; (-)) [Example 11, (−)-5-chloro-8-(3,5-dimethyl-1,2-oxazol-4-yl)-3-(2-(3-fluoropyridin-2-yl)-6-methyl-3,4-dihydro-2H-chromen-7-yl)-3,4-dihydropyrido[3,4-d]pyrimidin-2(1H)-one] | 109
Cc1cc2c(cc1N1Cc3c(ccnc3C(F)(F)F)NC1=O)O[C@@H](c1ncccc1F)CC2 [Example 5, 3-((2R)-2-(3-fluoropyridin-2-yl)-6-methyl-3,4-dihydro-2H-chromen-7-yl)-5-(trifluoromethyl)-3,4-dihydropyrido[4,3-d]pyrimidin-2(1H)-one] | 100
O=C(c1cc2c(c(C3CC3)n1)CN(c1cc3c(cc1Cl)CCC(c1ncccc1F)O3)C(=O)N2)N1CC(F)(F)C1 (stereo not shown) [Example 139, 3-(6-chloro-2-(3-fluoropyridin-2-yl)-3,4-dihydro-2H-chromen-7-yl)-5-cyclopropyl-7-((3,3-difluoroazetidin-1-yl)carbonyl)-3,4-dihydropyrido[4,3-d]pyrimidin-2(1H)-one] | 98
Cc1ccc(OCc2ncccc2F)cc1N1Cc2cccc(Cl)c2NC1=O [Example 253, 8-chloro-3-(5-((3-fluoropyridin-2-yl)methoxy)-2-methylphenyl)-3,4-dihydroquinazolin-2(1H)-one] | 93
Cc1cc2c(cc1N1Cc3c(cc(C4COC4)nc3C3CC3)NC1=O)OC(c1ncccc1F)CC2 (stereo not shown) [Example 42, 5-cyclopropyl-3-(2-(3-fluoropyridin-2-yl)-6-methyl-3,4-dihydro-2H-chromen-7-yl)-7-(oxetan-3-yl)-3,4-dihydropyrido[4,3-d]pyrimidin-2(1H)-one] | 116
Cc1cc2c(cc1N1Cc3c(C(F)(F)F)ncc(Br)c3NC1=O)OC(c1ncccc1F)CC2 (stereo not shown) [Example 87, 8-bromo-3-(2-(3-fluoropyridin-2-yl)-6-methyl-3,4-dihydro-2H-chromen-7-yl)-5-(trifluoromethyl)-3,4-dihydropyrido[4,3-d]pyrimidin-2(1H)-one] | 118

SMILES | inhibitory rate (%)
O=C1Nc2cc(-c3n[nH]c(=O)o3)nc(C3CC3)c2CN1c1cc2c(cc1Cl)CCC(c1ncccc1F)O2 (stereo not shown) [Example 117, 3-(6-chloro-2-(3-fluoropyridin-2-yl)-3,4-dihydro-2H-chromen-7-yl)-5-cyclopropyl-7-(5-oxo-4,5-dihydro-1,3,4-oxadiazol-2-yl)-3,4-dihydropyrido[4,3-d]pyrimidin-2(1H)-one] | 106
Cc1ccc(OCc2ncccc2F)cc1N1Cc2c(O)cccc2NC1=O [Example 305, 3-(5-((3-fluoropyridin-2-yl)methoxy)-2-methylphenyl)-5-hydroxy-3,4-dihydroquinazolin-2(1H)-one] | 103
Cc1ccc(OCc2c(F)cccc2F)cc1N1Cc2cccc(C(C)(C)O)c2NC1=O [Example 217, 3-(5-((2,6-difluorobenzyl)oxy)-2-methylphenyl)-8-(2-hydroxypropan-2-yl)-3,4-dihydroquinazolin-2(1H)-one] | 87
COc1ncc(Cl)c2c1NC(=O)N(c1cc3c(cc1C)CCC(c1ncccc1F)O3)C2 (stereo not shown) [Example 156, 5-chloro-3-(2-(3-fluoropyridin-2-yl)-6-methyl-3,4-dihydro-2H-chromen-7-yl)-8-methoxy-3,4-dihydropyrido[3,4-d]pyrimidin-2(1H)-one] | 95
NC(=O)c1cc2c(c(C3CC3)n1)CN(c1cc3c(cc1Cl)CCC(c1ncccc1F)O3)C(=O)N2 (stereo not shown) [Example 95, 3-(6-chloro-2-(3-fluoropyridin-2-yl)-3,4-dihydro-2H-chromen-7-yl)-5-cyclopropyl-2-oxo-1,2,3,4-tetrahydropyrido[4,3-d]pyrimidine-7-carboxamide] | 89
Cc1ccc(OCc2ncccc2F)cc1-n1c(=O)[nH]c2cccnc2c1=O [Example 338, 3-(5-((3-fluoropyridin-2-yl)methoxy)-2-methylphenyl)pyrido[3,2-d]pyrimidine-2,4(1H,3H)-dione] | 90
Cc1ccc(OCc2c(F)cccc2F)cc1N1Cc2ncccc2NC1=O [Example 223, 3-(5-((2,6-difluorobenzyl)oxy)-2-methylphenyl)-3,4-dihydropyrido[3,2-d]pyrimidin-2(1H)-one] | 95
CC(C)(O)c1ccc2c(c1)NC(=O)N(c1cc(OCc3c(F)cccc3F)ccc1Cc1ccccc1)C2 [Example 254, 3-(2-benzyl-5-((2,6-difluorobenzyl)oxy)phenyl)-7-(2-hydroxypropan-2-yl)-3,4-dihydroquinazolin-2(1H)-one] | 98
O=c1[nH]c2ccccc2c(=O)n1-c1cc(OCc2ncccc2F)ccc1F [Example 345, 3-(2-fluoro-5-((3-fluoropyridin-2-yl)methoxy)phenyl)quinazoline-2,4(1H,3H)-dione] | 114
Cc1ccc(OCc2ncccc2F)cc1N1Cc2c(ccnc2C(N)=O)NC1=O [Example 322, 3-(5-((3-fluoropyridin-2-yl)methoxy)-2-methylphenyl)-2-oxo-1,2,3,4-tetrahydropyrido[4,3-d]pyrimidine-5-carboxamide] | 97
COC(=O)c1ccc2c(c1)NC(=O)N(c1cc(OCc3nccc(Cl)c3F)ccc1C)C2 [Example 246, methyl 3-(5-((4-chloro-3-fluoropyridin-2-yl)methoxy)-2-methylphenyl)-2-oxo-1,2,3,4-tetrahydroquinazoline-7-carboxylate] | 109
Cc1ccc(OCc2ccc(F)cc2F)cc1N1Cc2ccc(C(C)(C)O)cc2NC1=O [Example 201, 3-(5-((2,4-difluorobenzyl)oxy)-2-methylphenyl)-7-(2-hydroxypropan-2-yl)-3,4-dihydroquinazolin-2(1H)-one] | 104
COc1cc2c(c(C3CC3)n1)CN(c1cc3c(cc1C)CCC(c1ncccc1F)O3)C(=O)N2 (stereo not shown) [Example 122, 5-cyclopropyl-3-(2-(3-fluoropyridin-2-yl)-6-methyl-3,4-dihydro-2H-chromen-7-yl)-7-methoxy-3,4-dihydropyrido[4,3-d]pyrimidin-2(1H)-one] | 106
Cc1cc2c(cc1N1Cc3c(cc(OC(F)F)nc3C3CC3)NC1=O)OC(c1ncccc1F)CC2 (stereo not shown) [Example 128, 5-cyclopropyl-7-(difluoromethoxy)-3-(2-(3-fluoropyridin-2-yl)-6-methyl-3,4-dihydro-2H-chromen-7-yl)-3,4-dihydropyrido[4,3-d]pyrimidin-2 (1H)-one] | 111
O=C1Nc2cc(CO)ccc2CN1c1cc(OCc2c(F)cccc2F)ccc1Cc1ccccc1 [Example 255, 3-(2-benzyl-5-((2,6-difluorobenzyl)oxy)phenyl)-7-(hydroxymethyl)-3,4-dihydroquinazolin-2(1H)-one] | 81
